ChEMBL document CHEMBL1201862, “PubChem BioAssay data set” (2004)
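Test compounds were applied to cells in 96-well plates for 48 hours at 5 doses. GI50 = concentration required for 50% inhibition of growth.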 Active and inactive are the calls of the source. Cut-off read from the data, not from the text of the source: active = GI50 up to about 1.1 µM and inactive = higher.

Key:
Test in all cases: inhibition of tumour cell growth, NCI panel, 48 h
COLO 205 = test system: COLO 205
ACHN = test system: ACHN
IGROV-1 = test system: IGROV-1
K562 = test system: K562
MDA-MB-435 = test system: MDA-MB-435
MDA-N = test system: MDA-N
CAKI-1 = test system: CAKI-1
MDA-MB-231 = test system: MDA-MB-231
SR = test system: SR
EKVX = test system: EKVX
RXF 393 = test system: RXF 393
U-251 = test system: U-251
SW-620 = test system: SW-620
UO-31 = test system: UO-31
786-0 = test system: 786-0
CCRF-CEM = test system: CCRF-CEM
OVCAR-4 = test system: OVCAR-4
OVCAR-8 = test system: OVCAR-8

SMILES	GI50 (COLO 205)	GI50 (ACHN)	GI50 (IGROV-1)	GI50 (K562)	GI50 (MDA-MB-435)	GI50 (MDA-N)	GI50 (CAKI-1)	GI50 (MDA-MB-231)	GI50 (SR)	GI50 (EKVX)	GI50 (RXF 393)	GI50 (U-251)	GI50 (SW-620)	GI50 (UO-31)	GI50 (786-0)	GI50 (CCRF-CEM)	GI50 (OVCAR-4)	GI50 (OVCAR-8)
Cc1cccc2nc3cccc(C(=O)NCCC[N+](C)(CCCNC(=O)c4cccc5nc6cccc(C)c6nc45)Cc4ccc([N+](=O)[O-])n4C)c3nc12	3.58 µM (inactive)	0.321 µM (active)	0.703 µM (active)	0.407 µM (active)	> 27 µM (inactive)	6.08 µM (inactive)	0.895 µM (active)	17.5 µM (inactive)	0.294 µM (active)	2.1 µM (inactive)	> 100 µM (inactive)	0.456 µM (active)	0.284 µM (active)	1.04 µM (active)	0.32 µM (active)	0.94 µM (active)	27.3 µM (inactive)	0.49 µM (active)
C=C(Cl)C(Cl)(CBr)CCC(Cl)C(C)(C)Cl (stereo not drawn)	4.15 µM (inactive)	1.77 µM (inactive)	6.84 µM (inactive)	2.22 µM (inactive)	2.05 µM (inactive)	1.81 µM (inactive)	1.08 µM (active)	2.16 µM (inactive)	15.1 µM (inactive)	8.38 µM (inactive)	1.35 µM (inactive)	0.597 µM (active)	1.47 µM (inactive)	2.3 µM (inactive)	0.388 µM (active)	8.63 µM (inactive)	1.09 µM (active)	2.36 µM (inactive)
CN(C)CCNC(=O)c1cc([N+](=O)[O-])ccn1	13.4 µM (inactive)	36.7 µM (inactive)	25.9 µM (inactive)	21.5 µM (inactive)	19 µM (inactive)	16.7 µM (inactive)	34 µM (inactive)	25.4 µM (inactive)	54.8 µM (inactive)	> 100 µM (inactive)	41.6 µM (inactive)	31 µM (inactive)	27 µM (inactive)	> 100 µM (inactive)	42.5 µM (inactive)	31.6 µM (inactive)	20.2 µM (inactive)	27.2 µM (inactive)
CC(C)(C)OC(=O)NCCCCCCC(=O)Cc1ccccc1	75.2 µM (inactive)	> 100 µM (inactive)	> 100 µM (inactive)	> 100 µM (inactive)	> 100 µM (inactive)	> 100 µM (inactive)	> 100 µM (inactive)	> 100 µM (inactive)	> 100 µM (inactive)	> 100 µM (inactive)	> 100 µM (inactive)	> 100 µM (inactive)	> 100 µM (inactive)	> 100 µM (inactive)	> 100 µM (inactive)	> 100 µM (inactive)	> 100 µM (inactive)	> 100 µM (inactive)
Nc1ccn(C=C=CCO)c(=O)n1	> 100 µM (inactive)	> 100 µM (inactive)	> 100 µM (inactive)	> 100 µM (inactive)	> 100 µM (inactive)	> 100 µM (inactive)	> 100 µM (inactive)	> 100 µM (inactive)	190 µM (inactive)	> 100 µM (inactive)	> 100 µM (inactive)	> 100 µM (inactive)	> 100 µM (inactive)	> 100 µM (inactive)	> 100 µM (inactive)	7.43 µM (inactive)	> 100 µM (inactive)	229 µM (inactive)
COC(=O)c1sc2nc(Nc3ccccc3)/c(=N\c3ccccc3)sc2c1C	> 100 µM (inactive)	32.7 µM (inactive)	45.4 µM (inactive)	> 100 µM (inactive)	> 100 µM (inactive)	66.8 µM (inactive)	58.6 µM (inactive)	> 100 µM (inactive)	47.6 µM (inactive)	59.6 µM (inactive)	24.3 µM (inactive)	48.6 µM (inactive)	> 100 µM (inactive)	> 100 µM (inactive)	34.8 µM (inactive)	> 100 µM (inactive)	64.7 µM (inactive)	64.1 µM (inactive)
